According to patent publication US6632794B1, “Insulin-like growth factor agonist molecules” (Genentech, Inc., priority 1997, dated 2003):
Where two headings read alike, the source gives them in different places. Positions of bridges follow the written chain, without caps; N, C: chain ends. Residues, ends and D or L forms follow the SMILES beside them.

Target: IGFBP-3 (Homo sapiens, UniProt P17936)
Assay: BIAcore competition assay, IGFBP-3 binding to immobilized IGF-I
Conditions: for IGF-I Inhibition IC50 (mut)/IC50 (wt): bp3-01-ox variants by BIAcore, wt = bp3-01-ox
Procedure: A. BIAcore™ Competition Assay (for IGFBP-3 Binders)
IGF-I was immobilized on a dextran chip for inhibition assays using a BIAcore™ 2000 surface-plasmon-resonance device (BIAcore, Inc., Piscataway, N.J.) to measure free binding protein. […] Serial dilutions of peptide were mixed with a constant concentration (40 nM) of IGFBP-3. After incubation for >1 hour at room temperature, an aliquot of 20 μL was injected at a flow rate of 20 μL/min over the IGF-I chip. Following the injection, a response reading was taken to measure the relative amount of IGFBP-3 bound to the IGF-I.

[1] = 40 nM IGFBP-3, 400 to 800 RU immobilized IGF-I, read-out: BIAcore Assay IC50, inhibition of IGF-I binding to IGFBP-3
[2] = bp3-01-ox variants by BIAcore competition assay, read-out: IGF-I Inhibition IC50

IGFBP-3, sequence (P17936 28-291): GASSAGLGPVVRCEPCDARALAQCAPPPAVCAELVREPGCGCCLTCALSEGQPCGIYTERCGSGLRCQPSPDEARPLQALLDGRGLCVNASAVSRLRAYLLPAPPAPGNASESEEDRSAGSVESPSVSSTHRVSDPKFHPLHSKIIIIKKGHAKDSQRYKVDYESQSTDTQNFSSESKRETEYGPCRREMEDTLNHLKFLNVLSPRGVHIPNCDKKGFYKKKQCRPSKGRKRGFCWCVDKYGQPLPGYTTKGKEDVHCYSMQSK

SMILES	IC50 [1]	IC50 [2]	IGF-I Inhibition IC50 (mut)/IC50 (wt)	other results
CC[C@H](C)[C@@H]1NC(=O)[C@H](C(C)C)NC(=O)[C@H](Cc2ccc(O)cc2)NC(=O)CNC(=O)[C@@H]2CCCN2C(=O)CNC(=O)[C@H](CCC(=O)O)NC(=O)[C@H](Cc2ccccc2)NC(=O)[C@@H](NC(=O)[C@H](CCC(=O)O)NC(=O)[C@H](CO)NC(=O)[C@H](CCC(=O)O)NC(=O)[C@@H](N)CCC(=O)O)CSSC[C@@H](C(=O)NCC(=O)N[C@@H](CC(C)C)C(=O)N[C@H](C(=O)NCC(=O)O)C(C)C)NC1=O [BP3-4B3.3] (H-EESECFEGPGYVICGLVG-OH; disulfide 5-14; N-terminus and C-terminus assumed)	80 µM			
CC[C@H](C)[C@@H]1NC(=O)[C@@H](NC(=O)[C@@H](NC(=O)[C@H](Cc2c[nH]c3ccccc23)NC(=O)CNC(=O)[C@H](CC(=O)O)NC(=O)[C@H](CC(C)C)NC(=O)[C@@H](N)CCC(=O)O)C(C)C)CSSC[C@@H](C(=O)N[C@@H](Cc2ccc(O)cc2)C(=O)N[C@@H](CC(C)C)C(=O)N[C@@H](C)C(=O)N[C@@H](CCC(=O)O)C(=O)NCC(N)=O)NC(=O)[C@H](CC(C)C)NC(=O)[C@H](CC(N)=O)NC(=O)[C@H](CCC(N)=O)NC(=O)[C@H](CCC(=O)O)NC(=O)CNC(=O)[C@H](C(C)C)NC(=O)[C@H](CCCCN)NC1=O [BP3-23] (H-ELDGWVCIKVGEQNLCYLAEG-NH2; disulfide 7-16; N-terminus assumed)	220 µM			
CC(C)C[C@H](NC(=O)[C@@H](NC(=O)[C@H](Cc1ccc(O)cc1)NC(=O)[C@@H]1CSSC[C@H](NC(=O)[C@@H](NC(=O)[C@@H](NC(=O)[C@H](CCCCN)NC(=O)[C@H](Cc2ccccc2)NC(=O)[C@@H](N)Cc2c[nH]c3ccccc23)[C@@H](C)O)C(C)C)C(=O)N[C@@H](Cc2ccc(O)cc2)C(=O)N[C@@H](CCC(=O)O)C(=O)N[C@@H](Cc2c[nH]c3ccccc23)C(=O)N[C@@H](CCC(=O)O)C(=O)N[C@@H](CC(=O)O)C(=O)N[C@@H](CCC(=O)O)C(=O)N[C@@H](C(C)C)C(=O)N[C@@H](CCC(N)=O)C(=O)N1)[C@@H](C)O)C(=O)N[C@@H](CCC(=O)O)C(=O)N[C@@H](CCC(=O)O)C(=O)NCC(N)=O [BP3-24] (H-WFKTVCYEWEDEVQCYTLEEG-NH2; disulfide 6-15)	100 to 300 µM			
CC[C@H](C)[C@H](NC(=O)[C@H](Cc1ccc(O)cc1)NC(=O)[C@H](C)NC(=O)CNC(=O)[C@@H](NC(=O)[C@@H](N)CCCNC(=N)N)C(C)C)C(=O)N[C@@H](CO)C(=O)N[C@H]1CSSC[C@@H](C(=O)N[C@@H](Cc2c[nH]c3ccccc23)C(=O)N[C@H](C(=O)N[C@@H](CCC(=O)O)C(=O)N[C@@H](CC(=O)O)C(=O)N[C@@H](CC(C)C)C(=O)N[C@@H](CC(C)C)C(=O)N[C@@H](CC(=O)O)C(=O)NCC(N)=O)C(C)C)NC(=O)[C@H](CCC(=O)O)NC(=O)[C@H]([C@@H](C)O)NC(=O)[C@H](CCC(=O)O)NC(=O)[C@H](CO)NC1=O [BP3-25] (H-RVGAYISCSETECWVEDLLDG-NH2; disulfide 8-13)	> 1000 µM			
CSCC[C@H](NC(=O)[C@@H]1CSSC[C@H](NC(=O)[C@H](CC(=O)O)NC(=O)[C@@H](NC(=O)CNC(=O)[C@@H](N)[C@@H](C)O)C(C)C)C(=O)N[C@@H](CCC(N)=O)C(=O)N[C@H]2CSSC[C@H](NC(=O)[C@H](Cc3c[nH]cn3)NC(=O)[C@H](C(C)C)NC(=O)[C@@H]3CCCN3C(=O)CNC2=O)C(=O)N[C@@H](C(C)C)C(=O)N1)C(=O)N[C@@H](CC(=O)O)C(=O)N[C@@H](Cc1c[nH]c2ccccc12)C(=O)N[C@@H](C)C(=O)O [BP06, TGVDCQC*GPVHC*VCMDWA] (H-TGVDCQCGPVHCVCMDWA-OH; disulfide 5-14, 7-12; N-terminus and C-terminus assumed)				IC50: 5 µM
CSCC[C@@H]1NC(=O)[C@H](Cc2ccc(O)cc2)NC(=O)[C@@H]2CSSC[C@H](NC(=O)[C@H](CC(C)C)NC(=O)[C@@H]3CCCN3C1=O)C(=O)N[C@@H](CC(C)C)C(=O)N[C@H](C(=O)N[C@@H](Cc1ccc(O)cc1)C(=O)N[C@@H](CC(=O)O)C(=O)N[C@@H](CO)C(=O)N[C@@H](CC(=O)O)C(=O)O)CSSC[C@H](NC(=O)[C@H](CC(N)=O)NC(=O)[C@H](C)NC(=O)[C@@H](NC(=O)[C@@H](N)[C@@H](C)O)C(C)C)C(=O)N[C@@H](CC(=O)O)C(=O)N2 [BP08, TVANCDC*YMPLC*LCYDSD] (H-TVANCDCYMPLCLCYDSD-OH; disulfide 5-14, 7-12; N-terminus and C-terminus assumed)				IC50: 15 µM

The next lines start with results.

IC50 [1]	IC50 [2]	IGF-I Inhibition IC50 (mut)/IC50 (wt)	SMILES	other results
> 1000 µM			CC[C@H](C)[C@@H]1NC(=O)[C@H](Cc2ccc(O)cc2)NC(=O)CNC(=O)[C@H](CCC(N)=O)NC(=O)[C@H](CC(=O)O)NC(=O)[C@H](Cc2c[nH]cn2)NC(=O)[C@H](CCCNC(=N)N)NC(=O)[C@H](CC(=O)O)NC(=O)[C@H](Cc2c[nH]c3ccccc23)NC(=O)[C@@H](N)CSSC[C@@H](C(=O)N[C@H](C(=O)N[C@H](C(=O)N[C@@H](CC(=O)O)C(=O)N[C@@H](CO)C(=O)O)[C@@H](C)O)[C@@H](C)O)NC1=O [BP13] (H-CWDRHDQGYICTTDS-OH; disulfide 1-11)	
	2.8 µM	1.4	CC(C)C[C@@H]1NC(=O)[C@H](Cc2ccc(O)cc2)NC(=O)[C@H](Cc2c[nH]c3ccccc23)NC(=O)[C@H](CCC(=O)O)NC(=O)[C@H](C)NC(=O)[C@H](C(C)C)NC(=O)[C@@H]2CCCN2C(=O)[C@H](Cc2c[nH]c3ccccc23)NC(=O)[C@@H](NC(=O)[C@@H](NC(=O)[C@@H](N)CCC(=O)O)C(C)C)CSSC[C@@H](C(=O)N[C@@H](CC(N)=O)C(=O)O)NC1=O [bp3-27] (H-EVCWPVAEWYLCN-OH; disulfide 3-12; N-terminus and C-terminus assumed)	
	5.4 µM	2.7	CC(C)C[C@@H]1NC(=O)[C@H](Cc2ccc(O)cc2)NC(=O)[C@H](Cc2c[nH]c3ccccc23)NC(=O)[C@H](CCC(=O)O)NC(=O)[C@H](C)NC(=O)[C@H](C(C)C)NC(=O)[C@@H]2CCCN2C(=O)[C@H](Cc2c[nH]c3ccccc23)NC(=O)[C@@H](NC(=O)[C@@H](NC(=O)[C@H](CCC(=O)O)NC(=O)[C@@H](N)CCC(=O)O)C(C)C)CSSC[C@@H](C(=O)N[C@@H](CC(N)=O)C(=O)O)NC1=O [bp3-28] (H-EEVCWPVAEWYLCN-OH; disulfide 4-13 (inferred); N-terminus and C-terminus assumed)	
	5.6 µM	2.8	CC(C)C[C@@H]1NC(=O)[C@H](Cc2ccc(O)cc2)NC(=O)[C@H](Cc2c[nH]c3ccccc23)NC(=O)[C@H](CCC(=O)O)NC(=O)[C@H](C)NC(=O)[C@H](C(C)C)NC(=O)[C@@H]2CCCN2C(=O)[C@H](Cc2c[nH]c3ccccc23)NC(=O)[C@@H](NC(=O)[C@@H](NC(=O)[C@H](CCC(=O)O)NC(=O)[C@H](CCC(=O)O)NC(=O)[C@H](CO)NC(=O)[C@H](C)N)C(C)C)CSSC[C@@H](C(=O)N[C@@H](CC(N)=O)C(=O)O)NC1=O [bp3-30] (H-ASEEVCWPVAEWYLCN-OH; disulfide 6-15; N-terminus and C-terminus assumed)	
	0.66 µM	0.33	CC(C)C[C@@H]1NC(=O)[C@H](Cc2ccc(O)cc2)NC(=O)[C@H](Cc2c[nH]c3ccccc23)NC(=O)[C@H](CCC(=O)O)NC(=O)[C@H](C)NC(=O)[C@H](C(C)C)NC(=O)[C@@H]2CCCN2C(=O)[C@H](Cc2c[nH]c3ccccc23)NC(=O)[C@@H](NC(=O)[C@@H](NC(=O)[C@H](CCC(=O)O)NC(=O)[C@H](CCC(=O)O)NC(=O)[C@@H](N)CO)C(C)C)CSSC[C@@H](C(=O)N[C@@H](CC(N)=O)C(N)=O)NC1=O [bp3-39] (H-SEEVCWPVAEWYLCN-NH2; disulfide 5-14 (inferred); N-terminus assumed)	
